# Source: PubChem BioAssay AID1329 (NMMLSC, 2008)
# Active and inactive are the calls of the source. How the calls were made is not given here.
# Target: Induced myeloid leukemia cell differentiation protein Mcl-1 (Homo sapiens) (UniProt Q07820)
# Assay: modulators of Bim peptide binding to Mcl-1, dose response, biochemical, bead-based flow cytometry, multiplexed, human (AID 1329)
# Conditions: Bim peptide-Mcl-1 binding, MCF
# Induced myeloid leukemia cell differentiation protein Mcl-1 (Homo sapiens), sequence (Q07820 whole entry, looked up): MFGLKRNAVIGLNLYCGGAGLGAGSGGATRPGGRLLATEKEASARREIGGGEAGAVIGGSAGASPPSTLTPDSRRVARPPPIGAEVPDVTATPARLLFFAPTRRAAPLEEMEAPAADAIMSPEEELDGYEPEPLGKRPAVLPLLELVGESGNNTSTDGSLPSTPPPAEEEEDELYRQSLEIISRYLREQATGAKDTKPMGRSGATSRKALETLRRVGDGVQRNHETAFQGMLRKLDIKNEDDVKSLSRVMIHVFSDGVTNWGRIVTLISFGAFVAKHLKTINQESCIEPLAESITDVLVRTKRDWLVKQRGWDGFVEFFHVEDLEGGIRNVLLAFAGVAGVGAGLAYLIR
row,SMILES,percent span
1,O=C1NC(=S)S/C1=C/c1ccc(N2CCOCC2)o1,inactive
2,COc1ccc(C2CN(C)CC2C(=O)c2ccc(F)cc2)cc1Cl (stereo not given),inactive
3,O=C(O)CC/C(=C\c1cc([N+](=O)[O-])ccc1Cl)c1nc2ccccc2s1,inactive
4,CCOc1cc(/C=N/NC(N)=O)ccc1OCC(=O)Nc1ccc(C)c(C)c1,inactive
5,COc1cc(N=c2ssnc2Cl)cc(OC)c1,inactive
6,O=C(CSc1ccc2nnc(-c3ccncc3)n2n1)Nc1nccs1,inactive
7,CCCOc1ccc(-c2c(C(=O)N/N=C/c3ccc(OC)cc3)nnn2-c2nonc2N)cc1,inactive
8,O=c1[nH]c(SCc2nc3ccccc3c(=O)n2-c2ccccc2C(F)(F)F)nc2ccccc12,inactive
9,Cc1ccc(-c2cc(-c3ccc(Cl)cc3)c(C#N)c(N)n2)o1,inactive
10,CN(C)C(Cc1ccccc1)C(=O)c1cccs1 (stereo not given),inactive
11,COC(=O)c1sc(NC(=O)c2ccc(Cn3cc(Cl)cn3)o2)c(C#N)c1C,inactive
12,Cc1cc(-c2nn(-c3ccccc3)cc2/C=C2\SC(N)=NC2=O)ccc1OC(C)C,inactive
13,COCCN=c1scc(-c2cccs2)n1/N=C/c1ccc(O)c(O)c1O,inactive
14,C=CCn1c(C)c(C(C)=O)c(N2CCOCC2)nc1=S,inactive
15,Nc1ccc(C2=Nc3cccc4cccc(c34)N2)cc1,inactive
16,CNC(=O)CC1C(=O)N(Cc2ccccc2)C(=S)N1NC(=O)c1cccc(F)c1 (stereo not given),inactive
17,CCOC(=O)c1snc(-c2ccc(F)cc2)c1N,inactive
18,Cc1ccc(OCc2cn3cccnc3n2)cc1,inactive
19,COc1cccc2c(SCC(=O)N/N=C/c3ccccc3)cc(C)nc12,inactive
20,CCOC(=O)C1=C(Cc2ccc(C)cc2)C(=O)c2ccccc2C1=O,inactive
21,O=C(Cn1c(-c2ccccc2)noc1=O)N1CCC(Cc2ccccc2)CC1,inactive
22,O=C(Nc1cccc(Cl)c1)Nc1ccc(Cl)cn1,inactive
23,COc1c(C)cc(Br)cc1C(=O)Nc1ccc(S(N)(=O)=O)cc1,inactive
24,O=C(OCc1nc2ccccc2[nH]1)C12CC3CC(CC(C3)C1)C2,inactive
25,CCOC(=O)C1CCN(C(=O)Nc2ccc3nc(-c4ccco4)c(-c4ccco4)nc3c2)CC1,inactive
26,Cc1ccc2c(C)c(C(=O)Nc3nnc(C)s3)oc2c1,inactive
27,CNCc1ccccc1Sc1ccc(O)c(O)c1,inactive

row,SMILES,percent span
1,Cc1cccc(C(=O)N=c2c(C#N)cc3c(=O)n4cccc(C)c4nc3n2Cc2ccco2)c1,inactive
2,COc1ccc(OC)c(NC(=O)CCCN2C(=S)NC(C)(C)CC2C)c1 (stereo not given),inactive
3,O=C(c1cc(=O)c2ccccc2o1)N1CCN(c2ccccc2F)CC1,inactive
4,OCCC1CN(Cc2nc3c(s2)CCCC3)CCN1Cc1ccsc1 (stereo not given),inactive
5,CCOc1cc(/C=N/NC(=O)c2cccs2)cc([N+](=O)[O-])c1O,inactive
6,O=C(Cc1ccc(-c2ccccc2)cc1)NC1CCCC1,inactive
7,CCOc1ccccc1C(=O)NC1CC2CCCC(C1)N2C1CC1 (stereo not given),inactive
8,COc1ccc(/C=C/C(=O)Nc2sc(Cc3ccccc3)c(C)c2C(N)=O)cc1,inactive
9,CCNC(=O)N1c2ccc(OCC)cc2C(C)=CC1(C)C,inactive
10,O=C(c1cnccn1)N(Cc1cccs1)C1(C(=O)NC2CCCCC2)CCCCC1,inactive
11,N#C/C(=C(/O)CN1CCN(c2ccccc2F)CC1)c1nc(-c2ccccc2)cs1,inactive
12,Cc1cccc(N2C(S)=C(C#N)C(=O)NC2c2cccs2)c1 (stereo not given),inactive
13,COc1ccc(N2CCN(CCCNC(=O)CCCn3c(=O)[nH]c4ccsc4c3=O)CC2)cc1,inactive
14,CCOc1ccc(C2=Nn3c(nnc3-c3ccco3)SC2)cc1,inactive
15,O=C(NCc1ccccc1)C(=O)Nc1nc(C23CC4CC(CC(C4)C2)C3)cs1,inactive
16,CCn1cc(C=C2C(=O)c3ccccc3C2=O)c2ccccc21,inactive
17,O=C1c2ccccc2C(=O)N1c1cccc2cccnc12,inactive
18,C=CCSc1nc(N)c2c(C)c(C)sc2n1,inactive
19,CCOc1ccccc1/C=N/NC(=O)CNC(=O)COc1ccccc1,inactive
20,COc1ccc(N2CCN(C(CNS(=O)(=O)c3ccc4c(c3)OCCO4)c3ccco3)CC2)cc1 (stereo not given),inactive
21,Cc1nnc(Sc2cc(NCCO)c([N+](=O)[O-])c3nonc23)s1,inactive
22,O=C(COc1ccc(Br)cc1CNC1CCCCC1)NCCc1ccccc1,inactive
23,CC1=CC(=O)c2c(O)ccc(O)c2C1=O,inactive
24,Clc1ccc2c(N/N=C/c3ccccc3Br)ccnc2c1,inactive
25,CC1Nc2ccccc2C(=O)N1NS(=O)(=O)c1ccccc1 (stereo not given),inactive
26,Cc1ccc(NS(=O)(=O)c2cc(NC(=O)c3ccc4c(c3)NC(=O)CS4)ccc2C)c(C)c1,inactive
27,Cc1ccc(S(=O)(=O)N2CCCCC2)cc1NC(=O)COC(=O)c1ccccc1F,inactive

row,SMILES,percent span
1,COc1cccc(-n2nnnc2SCC(=O)Nc2cccc(NC(C)=O)c2)c1,inactive
2,Cc1ccccc1OCC(=O)N/N=C/c1ccccn1,inactive
3,Cc1ccc(-c2cc(C(=O)Nc3cc(C(=O)O)ccc3C)c3ccccc3n2)cc1,inactive
4,O=C(CCCN1C(=O)c2cccc3cccc(c23)C1=O)N1CCN(c2ccccn2)CC1,inactive
5,Cc1nc2ccccc2n1CSc1ccccc1,inactive
6,COc1cc2c(cc1OC)C(c1ccccc1F)OC(=O)C2 (stereo not given),inactive
7,Cc1cccc(Nc2nc(-c3ccncc3)cs2)c1,inactive
8,CCOC(=O)CSc1nnc(-c2cccc(Cl)c2)n1CC,inactive
9,CN1CCN(c2ccccc2N)CC1,inactive
10,C=CS(=O)c1sc(Cl)c(N2CCOCC2)c1[N+](=O)[O-] (stereo not given),inactive
11,CN(C)[C@@H]1C(=O)C(C(=O)NCN2CCCC2)=C(O)[C@@]2(O)C(=O)C3=C(O)c4c(O)cccc4[C@@](C)(O)C3CC12 (stereo not given in full),inactive
12,CCOC(=O)c1ccc(NC(=O)CSCCC(=O)O)cc1,inactive
13,O=[N+]([O-])c1ccc(N2CCN(c3ccc(O)cc3)CC2)c(Cl)c1,inactive
14,CCOC(=O)CSC1=NC(=O)/C(=C\c2ccc(OC(C)=O)cc2)S1,inactive
15,Cc1ccc(N=C2NC(=O)/C(=C/C=C/c3ccco3)S2)cc1,inactive
16,O=C(c1cnccn1)N1CCN(c2ccccc2F)CC1,inactive
17,COc1ccc2nc(C)cc(SCC(=O)N/N=C/c3ccc(O)cc3O)c2c1,inactive
18,CN=c1scc(-c2cccs2)n1/N=C/c1ccc(O)c(O)c1O,inactive
19,CCN1CCN(CC(=O)c2c[nH]c3ccc(C)cc23)CC1,inactive
20,CC(C)(C)c1nc(NCCN2CCOCC2)c2nnn(Cc3ccccc3Cl)c2n1,inactive
21,Cc1ccc(S(=O)(=O)NC(=O)COc2ccccc2C)cc1,inactive
22,CN1CCc2cccc3c2[C@H]1Cc1ccc(O)c(O)c1-3,inactive
23,C=CCn1c(C)cc(-c2csc(NC)n2)c1C,inactive
24,CCOc1ncccc1C(=O)OC(C)C(=O)Nc1ccc(CC)cc1 (stereo not given),inactive
25,CCOCCOc1nc2c(c(=O)n(C)c(=O)n2C)n1CCc1ccccc1,inactive
26,CCc1ccc(NC(=O)CC2NCCNC2=O)cc1 (stereo not given),inactive
27,NC(=O)c1c(NC(=O)C2CCCO2)sc2c1CCCC2 (stereo not given),inactive

row,SMILES,percent span
1,CN(C)c1ccc(Nc2nc(-c3cccnc3)cs2)cc1,inactive
2,CCCCNC(=O)c1ccc2nc(-c3ccco3)c(-c3ccco3)nc2c1,inactive
3,CCN1CCN(c2ccc(NC(=O)c3cccc4ncccc34)cc2)CC1,inactive
4,CCOc1c(Cl)cc(CNc2ccc(N3CCCC3)cc2)cc1OC,inactive
5,CNc1ccc(Br)cc(C(=O)/C=C/c2cc(OC)ccc2OC)c1=O,inactive
6,CCOc1cccc(CNc2ccc(O)cc2)c1OCc1ccccc1Cl,inactive
7,CN(C)S(=O)(=O)N(CC(=O)Nc1ccccc1C(F)(F)F)c1ccccc1,inactive
8,O=C1/C(=C\c2ccco2)NC(=S)N1c1ccccc1,inactive
9,Cc1nonc1NC(=O)CSc1nnc(-c2ccoc2C)n1C,inactive
10,CC1Cc2ccccc2N1C(=O)c1ccc(N2CCCC2)c([N+](=O)[O-])c1 (stereo not given),inactive
11,Cc1noc(C)c1COc1ccc(C(=O)Nc2cccnc2)cc1,inactive
12,O=C(O)c1cccc(NC2=C(Cl)C(=O)c3ccccc3C2=O)c1,inactive
13,Cc1sc(NC(=O)Cn2cnnn2)nc1-c1ccc(Cl)cc1,inactive
14,COc1ccc(OC)c(NC(=O)COC(=O)c2cc3c(s2)CCC3)c1,inactive
15,COc1cccc(/C=N/Nc2nn3cnnc3c3ccccc23)c1,inactive
16,Cc1ccnc(NS(=O)(=O)c2ccc(NC(=O)c3c(-c4ccccc4Cl)noc3C)cc2)n1,inactive
17,Cc1ccc(C(NC(=O)C(C)C)c2cc([N+](=O)[O-])c3cccnc3c2O)cc1 (stereo not given),inactive
18,Cc1ccc(NC(=O)CSc2nc3ccccc3c(=O)n2CCCN2CCCCC2)cc1Cl,inactive
19,Cc1nnc(Sc2cc(NCCCO)c([N+](=O)[O-])c3nonc23)s1,inactive
20,O=C(CSc1nnc(-c2cccs2)n1Cc1ccco1)c1ccc2c(c1)OCO2,inactive
21,O=C(C[n+]1ccc(-c2nnc3n2CCC3)cc1)c1ccc(Cl)cc1,inactive
22,CC[n+]1c(/C=C/C=C/N(C(C)=O)c2ccccc2)sc2ccccc21,inactive
23,O=[N+]([O-])c1c(NCCCO)cc(Sc2nc3ccccc3s2)c2nonc12,inactive
24,CC(=O)OCCNc1cc(Sc2nc3ccccc3[nH]2)c2nonc2c1[N+](=O)[O-],inactive
